Five compounds from patent US20120309773A1, “HETEROCYCLIC COMPOUNDS AS JANUS KINASE INHIBITORS” (priority 2009, published 2012) can be followed below.

With `CN(C)c1nc(Nc2cc(C(=O)NC3CCC3)n[nH]2)c2occc2n1` [Compound 19A, N-cyclobutyl-5-(2-(dimethylamino)furo[3,2-d]pyrimidin-4-ylamino)-1H-pyrazole-3-carboxamide], the melting point – broadly, the temperature, or range, at which the solid turns liquid – came out at 270.8 °C.
`O=C(NC1CCC1)c1cc(Nc2nc(N3CCCC3c3ccccn3)nc3ccoc23)n[nH]1` (centres unmarked) [Compound 14F, N-cyclobutyl-3-(2-(2-(pyridin-2-yl)pyrrolidin-1-yl)furo[3,2-d]pyrimidin-4-ylamino)-1H-pyrazole-5-carboxamide] returned a melting point of 274.3 °C.
Consider `O=C(NC1CCC1)c1cc(Nc2nc(N3CCCC3c3ccccn3)nc3ccoc23)[nH]n1` (centres unmarked) [Compound 13E, N-cyclobutyl-5-(2-(2-(pyridin-2-yl)pyrrolidin-1-yl)furo[3,2-d]pyrimidin-4-ylamino)-1H-pyrazole-3-carboxamide], for which the melting point was 250.1 °C.
The value for `O=C(NC1CC1)c1cc(Nc2nc(N3CCC[C@H]3CO)nc3ccoc23)n[nH]1` [Compound 15C, (S)—N-cyclopropyl-3-(2-(2-(hydroxymethyl)pyrrolidin-1-yl)furo[3,2-d]pyrimidin-4-ylamino)-1H-pyrazole-5-carboxamide] was 96.8 °C; that for `O=C(NC1CC1)c1cc(Nc2nc(N3CCCC3c3ccccn3)nc3ccoc23)[nH]n1` (centres unmarked) [Compound 12E, N-cyclopropyl-5-(2-(2-(pyridin-2-yl)pyrrolidin-1-yl)furo[3,2-d]pyrimidin-4-ylamino)-1H-pyrazole-3-carboxamide] was 238.4 °C.
